# Literature values as cited in US20230381309A1, “METHODS OF TREATING DIFFUSE LARGE B-CELL LYMPHOMA” (IMMUNOVACCINE TECHNOLOGIES INC., priority 2020, published 2023).
# Where two headings read alike, the source gives them in different places.
# Test system: relapsed/refractory DLBCL
substance,measurement,setting,value
nivolumab: PD1 antibody (Opdivo; Bristol-Myers Squibb),objective response rate,patients having failed autologous transplantation,10%
same,objective response rate,patients ineligible for autologous transplantation,3%
